Patent US12370235B2, “Synthetic, non-natural antimicrobial peptides inspired by Staphylococcus auricularis delta toxin” (University of Saskatchewan, priority 2021, dated 2025)
Ends that are not written are not given here.

How the values were obtained:
S. aureus ATCC 29213 = test: MIC, broth dilution; type: cell-based, Staphylococcus aureus; details: for MIC (μg/mL) S. aureus: liquid broth; for MIC S. aureus: S. aureus ATCC 29213
Description: (§1) MIC determination. MICs were measured using peptides with 95% purity. For bacterial studies, cation-adjusted Mueller Hinton (MH) broth was used as the growth medium whereas Yeast Peptone Dextrose (YPD; 10 g/L yeast extract, 20 g/L peptone, 20 g/L dextrose) was used for Candida spp. and other yeast. Microorganisms were diluted to an optical density of […] in MH or YPD broth and a 180 μl volume was mixed with 20 μl of peptide arrayed as a 2-fold dilution series in a flat-bottom 96-well microtitre plate. A control was performed using 20 μl of sterile water. Plates were incubated as standing cultures overnight at 37° C.
(§2) Determination of minimum inhibitory concentrations. The MICs were measured for bioactive peptides identified from the initial screen. For bacterial studies, cation-adjusted Mueller Hinton (MH) broth was used as the growth medium whereas YPD was used for C. albicans. Bacterial cultures were diluted to a OD value of 6×10^−4 in MH broth and a 180 μl volume was mixed with 20 μl of peptide arrayed as 2-fold dilution series in a 96-well plate. For the positive control, 20 μl of sterile water was used. Plates were incubated as standing cultures overnight at 37° C. The lowest peptide concentration that resulted no observed microbial growth after an overnight treatment was defined as the MIC.

M. luteus ATCC 4698 = test: MIC, broth dilution; type: cell-based, Micrococcus luteus; details: for MIC (μg/mL) M. luteus: Table 4, liquid broth; for MIC M. luteus: M. luteus ATCC 4698
Description: as §1, §2

[1] = system: Mannheimia haemolytica ATCC 33393; test: MIC, broth dilution; type: cell-based; details: for MIC (μg/mL) M. haemolytica: Table 10, liquid broth; for MIC M. haemolytica: M. haemolytica ATCC 33393
Description: as §1, §2
The ability of STIP3 variants to inhibit the growth of Mannheimia haemolytica ATCC 33393 was evaluated. This included an alanine scan of STIP3-1 (FIG. 8 & Table 10) as well as 30 rationally-designed STIPs that were evaluated in the preceding Examples against other pathogens (Table 11). Substitutions at a greater number of sites were tolerated in the context of antimicrobial activity. Moreover, the inclusion of basic natural and unnatural amino acids (e.g. lysine, ornithine, and arginine) at positions 3, 4 and 11 (i.e. X1, X2, and X4 of SEQ ID NO: 32) to afford a more uniformly cationic peptide increased activity against M. haemolytica.

C. albicans MYA-2876 = test: MIC, YPD broth; type: cell-based, Candida albicans; details: Candida albicans MYA-2876
Description: as §1, §2

Row | Substance | MIC (μg/mL) S. aureus (S. aureus ATCC 29213; Table 4) | MIC (μg/mL) M. luteus (M. luteus ATCC 4698) | MIC (μg/mL) M. haemolytica [1] | MIC (μg/mL) S. aureus (S. aureus ATCC 29213; Table 10) | MIC C. albicans (C. albicans MYA-2876) | MIC S. aureus (S. aureus ATCC 29213) | MIC M. luteus (M. luteus ATCC 4698) | MIC M. haemolytica [1]
1 | TVGGLVKWILDTAKKFA [V13A, TVGGLVKWILDTAKKFA] | 200 µg/mL | 50 µg/mL | 200 µg/mL |  |  |  |  | 
2 | TVGGLVKWILDTVKKAA [F16A, TVGGLVKWILDTVKKAA] | > (> = >200 μg/mL (maximum concentration tested)) | 200 µg/mL | > (the use of > indicates an MIC > 200 μg/mL; the maximum concentration tested) | > (the use of > indicates an MIC > 200 μg/mL; the maximum concentration tested) |  |  |  | 
3 | TVKSFVNLILDTVKKYAK [STIP8-1] |  |  |  |  | 100 µg/mL | > (the use of > indicates an MIC >200 μg/mL; the maximum concentration tested) | 100 µg/mL | > (the use of > indicates an MIC >200 μg/mL; the maximum concentration tested)
4 | TVKSFVNLILKTVKKYAK [STIP8-2] |  |  |  |  | 100 µg/mL | > (the use of > indicates an MIC >200 μg/mL; the maximum concentration tested) | 6.25 µg/mL | 100 µg/mL
5 | TVKSFVNLILKTVKKYAK-NH2 [STIP8-3] |  |  |  |  | > (the use of > indicates an MIC >200 μg/mL; the maximum concentration tested) | > (the use of > indicates an MIC >200 μg/mL; the maximum concentration tested) | 3.13 µg/mL | 50 µg/mL
6 | TVTKFVKLIAETVKKFTK [STIP9-1] |  |  |  |  | 100 µg/mL | > (the use of > indicates an MIC >200 μg/mL; the maximum concentration tested) | 50 µg/mL | 200 µg/mL
7 | TVTKFVKLIAKTVKKFTK [STIP9-2] |  |  |  |  | 25 µg/mL | > (the use of > indicates an MIC >200 μg/mL; the maximum concentration tested) | 6.25 µg/mL | 100 µg/mL
8 | TVTKFVKLIAKTVKKFTK-NH2 [STIP9-3] |  |  |  |  | 100 µg/mL | > (the use of > indicates an MIC >200 μg/mL; the maximum concentration tested) | 3.13 µg/mL | 100 µg/mL
